“And” between values parts separate entries of the source, which are not always exact repeats. Equal values may be shown once.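 The compound was tested at five concentrations on cells cultured in 96-well plates, with a 48-hour exposure period. Abbreviation: GI50, concentration required for 50% inhibition of growth. TGI: concentration producing complete growth inhibition.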 Where a SMILES comes first, the peptide text is derived from it. [ ]: non-standard residue; d: D form. 2Nal = N[CH](Cc1ccc2ccccc2c1)C(=O)O
What was measured:
Test in all cases: NCI tumour cell line growth inhibition, 48 h
DLD-1 colon = test system: DLD-1 colon
XF 498 CNS = test system: XF 498 CNS
KM20L2 colon = test system: KM20L2 colon
M19-MEL melanoma = test system: M19-MEL melanoma
DMS 114 small cell lung = test system: DMS 114 small cell lung
HOP-18 NSCLC = test system: HOP-18 NSCLC
RXF-631 renal = test system: RXF-631 renal
SNB-78 CNS = test system: SNB-78 CNS
MDA-N = test system: MDA-N
P388/ADR leukemia = test system: P388/ADR leukemia
SN12K1 renal = test system: SN12K1 renal
P388 leukemia = test system: P388 leukemia

CC(=O)ON(C(C)=O)C1C(COC(c2ccccc2)(c2ccccc2)c2ccccc2)OC2OC3(CCCC3)OC21 (stereo not given)
TGI (DLD-1 colon): > 100 µM | TGI (XF 498 CNS): > 100 µM | TGI (KM20L2 colon): > 100 µM | TGI (M19-MEL melanoma): > 100 µM | TGI (DMS 114 small cell lung): > 100 µM | TGI (HOP-18 NSCLC): > 100 µM

Cn1nc(-c2ccccc2)c(C(=O)/C=C/c2ccc(F)cc2)c(N2CCOCC2)c1=O
TGI (DLD-1 colon): > 100 µM | TGI (XF 498 CNS): 42.7 µM | TGI (KM20L2 colon): 31.6 µM | TGI (M19-MEL melanoma): 39 µM | TGI (DMS 114 small cell lung): 33.4 µM | TGI (HOP-18 NSCLC): 37.3 µM | TGI (RXF-631 renal): 86.6 µM

OC1CCC[C@@H]1Sc1ccccc1 (stereo not given in full)
TGI (DLD-1 colon): > 100 µM | TGI (XF 498 CNS): > 100 µM | TGI (KM20L2 colon): > 100 µM | TGI (M19-MEL melanoma): > 100 µM | TGI (DMS 114 small cell lung): > 100 µM | TGI (SNB-78 CNS): > 100 µM | TGI (RXF-631 renal): > 100 µM

CC(C)C(NC(=O)C(CCCCN)NC(=O)C(Cc1c[nH]c2ccccc12)NC(=O)C(Cc1ccc(O)cc1)NC(=O)C(CS)NC(=O)C(N)Cc1ccc2ccccc2c1)C(=O)NC(CS)C(=O)NC(C(N)=O)C(C)O (stereo not given) (H-[2Nal]CYWKVCT-NH2; configuration not given here)
TGI (DLD-1 colon): > 100 µM | TGI (XF 498 CNS): > 100 µM | TGI (KM20L2 colon): > 100 µM | TGI (M19-MEL melanoma): > 100 µM | TGI (MDA-N): > 12.5 µM | TGI (DMS 114 small cell lung): > 100 µM | TGI (HOP-18 NSCLC): > 100 µM | TGI (SNB-78 CNS): 23.2 µM | TGI (RXF-631 renal): > 100 µM

O=c1c(-c2ccc(O)cc2)coc2cc(OC3OC(CO)C(O)C(O)C3O)cc(O)c12 (stereo not given)
TGI (MDA-N): > 100 µM

COC(=O)C1=C(C(=O)OC)C2OC1c1cc3ccccc3cc12
TGI (MDA-N): 17.5 µM

N#Cc1cc(NC(=O)c2ccccc2)c(=O)n2c1[nH]c1ccccc12
TGI (DLD-1 colon): > 100 µM | TGI (XF 498 CNS): > 100 µM | TGI (KM20L2 colon): > 100 µM | TGI (M19-MEL melanoma): > 100 µM | TGI (DMS 114 small cell lung): 95.5 µM | TGI (HOP-18 NSCLC): > 100 µM | TGI (SNB-78 CNS): > 100 µM | TGI (RXF-631 renal): > 100 µM

O=C1C2ON3c4ccccc4C(=O)C3(c3ccccc3)C2C(=O)N1c1ccccc1 (stereo not given)
TGI (DLD-1 colon): > 100 µM | TGI (XF 498 CNS): > 100 µM | TGI (KM20L2 colon): > 100 µM | TGI (M19-MEL melanoma): > 100 µM | TGI (HOP-18 NSCLC): > 100 µM | TGI (SNB-78 CNS): > 100 µM

C1CCN2CC3CCCN4CCCC(C2C1)C34 (stereo not given)
TGI (MDA-N): > 100 µM

NNC(=O)N/N=C1\C(=O)N(c2nccs2)C(=O)C(=O)C1c1nc2ccccc2s1 (stereo not given)
TGI (DLD-1 colon): > 100 µM | TGI (XF 498 CNS): > 100 µM | TGI (KM20L2 colon): > 100 µM | TGI (M19-MEL melanoma): > 100 µM | TGI (DMS 114 small cell lung): > 100 µM | TGI (HOP-18 NSCLC): 88.5 µM | TGI (SNB-78 CNS): > 100 µM | TGI (RXF-631 renal): > 100 µM

COC(=O)C(=O)C(C(=O)C(=O)Nc1ccc(C)cc1)c1nc2ccc(C(=O)c3ccccc3)cc2[nH]c1=O (stereo not given)
TGI (MDA-N): > 100 µM

COc1ccc(/C=C\c2cc(OC)c(OC)c(OC)c2)c(O)c1O
GI50 (DLD-1 colon): 1.52 µM | TGI (DLD-1 colon): > 85.8 µM | TGI (P388/ADR leukemia): 23.4 µM | GI50 (XF 498 CNS): 2.95 µM | GI50 (KM20L2 colon): 26.6 µM | TGI (KM20L2 colon): 76.9 µM | TGI (SN12K1 renal): 1.08 µM | TGI (P388 leukemia): 4.57 µM | GI50 (M19-MEL melanoma): 1.42 µM | TGI (M19-MEL melanoma): 17.8 µM and 11.2 µM | TGI (MDA-N): < 0.0304 µM | GI50 (DMS 114 small cell lung): 0.196 µM | TGI (DMS 114 small cell lung): 3.92 µM and 0.568 µM | GI50 (HOP-18 NSCLC): 109 µM | TGI (HOP-18 NSCLC): 185 µM | GI50 (SNB-78 CNS): 1.86 µM | TGI (SNB-78 CNS): > 89.6 µM and 48.5 µM

CC1=NN(C(=O)c2ccncc2)C(=O)C1N=Nc1ccc2ccccc2c1 (stereo not given)
TGI (MDA-N): 10.2 µM

CC(=O)O[C@H]1C(=O)[C@@]2(C)[C@H]([C@H](OC(=O)c3ccccc3)[C@@]3(O)C[C@H](O)C(C)=C1C3(C)C)[C@]1(OC(C)=O)CO[C@@H]1C[C@@H]2O
TGI (MDA-N): 17.1 µM

NNC(=S)Nc1cccc(Cl)c1
TGI (MDA-N): > 100 µM

C#CCN(N=O)C(=O)NCCCC(NC(C)=O)C(=O)NCc1ccccc1 (stereo not given)
TGI (DLD-1 colon): > 100 µM | TGI (XF 498 CNS): 84.4 µM | TGI (KM20L2 colon): > 100 µM | TGI (M19-MEL melanoma): > 100 µM | TGI (DMS 114 small cell lung): > 100 µM | TGI (HOP-18 NSCLC): > 100 µM | TGI (SNB-78 CNS): > 100 µM | TGI (RXF-631 renal): > 100 µM

C=C1C(=O)OC2C1C(OC(=O)/C(C)=C\C)CC1(CO1)C1C(O)C=C(C)C21O (stereo not given)
TGI (DLD-1 colon): 7.8 µM | TGI (XF 498 CNS): 25.7 µM | TGI (KM20L2 colon): 10.8 µM | TGI (M19-MEL melanoma): 25.4 µM | TGI (DMS 114 small cell lung): 20.6 µM | TGI (HOP-18 NSCLC): 23.3 µM | TGI (SNB-78 CNS): 34.9 µM | TGI (RXF-631 renal): 16.9 µM

CC1CC(C)C2=NOS3=C2C1=NO3 (stereo not given)
TGI (MDA-N): > 100 µM

CCOC(=O)C1SC(=Nc2ccc(Cl)cc2C)N=C1C (stereo not given)
TGI (DLD-1 colon): 35.9 µM | TGI (XF 498 CNS): 40 µM | TGI (KM20L2 colon): 32.1 µM | TGI (M19-MEL melanoma): 43.7 µM | TGI (DMS 114 small cell lung): 35.3 µM | TGI (HOP-18 NSCLC): > 100 µM | TGI (SNB-78 CNS): 76.7 µM | TGI (RXF-631 renal): 71.4 µM

CN(C)CCNC(=O)c1cccc2ncc(-c3ccccc3)nc12
TGI (DLD-1 colon): 44.9 µM | TGI (KM20L2 colon): 38 µM | TGI (M19-MEL melanoma): 29.5 µM | TGI (DMS 114 small cell lung): 26.6 µM | TGI (HOP-18 NSCLC): > 64.3 µM | TGI (SNB-78 CNS): 40 µM | TGI (RXF-631 renal): > 82.5 µM

Nc1nc(N)c(N=Nc2ccc(C(=O)O)c(O)c2)c(N)n1
TGI (MDA-N): > 100 µM

Cc1cc(C)nc(NS(=O)(=O)c2ccc(NC(=O)c3ccc(Cl)c4c(Nc5ccc(S(=O)(=O)N=C(N)N)cc5)c5ccccc5nc34)cc2)n1
TGI (XF 498 CNS): > 100 µM | TGI (KM20L2 colon): > 100 µM | TGI (DMS 114 small cell lung): 93.6 µM | TGI (HOP-18 NSCLC): > 100 µM | TGI (SNB-78 CNS): > 100 µM

CN(C)CCC1(C2=CCCC2)CC/C(=C\c2ccccc2Cl)C1=O (stereo not given)
TGI (DLD-1 colon): 37.4 µM | TGI (KM20L2 colon): 24.6 µM | TGI (M19-MEL melanoma): 54.1 µM | TGI (DMS 114 small cell lung): 29.5 µM | TGI (HOP-18 NSCLC): 24.8 µM | TGI (SNB-78 CNS): 29 µM | TGI (RXF-631 renal): 28.1 µM

CCC[CH2][Sn]([CH2]CCC)([O]C(=O)c1cc(F)cc(F)c1)[O][Sn]([CH2]CCC)([CH2]CCC)[O]C(=O)c1cc(F)cc(F)c1
GI50 (DLD-1 colon): 1.15 µM | TGI (DLD-1 colon): 2.41 µM | GI50 (XF 498 CNS): 1.4 µM | TGI (XF 498 CNS): 2.71 µM | GI50 (KM20L2 colon): 3.1 µM | TGI (KM20L2 colon): 10.6 µM | GI50 (M19-MEL melanoma): 0.519 µM | TGI (M19-MEL melanoma): 2 µM | GI50 (DMS 114 small cell lung): 0.379 µM | TGI (DMS 114 small cell lung): 1.53 µM | GI50 (HOP-18 NSCLC): 1.96 µM | TGI (HOP-18 NSCLC): 3.38 µM | GI50 (SNB-78 CNS): 0.584 µM | TGI (SNB-78 CNS): 2.29 µM

COc1ccc(NC(=O)CCc2cc(C(C)(C)C)n[nH]2)cc1
TGI (XF 498 CNS): > 100 µM | TGI (KM20L2 colon): > 100 µM | TGI (M19-MEL melanoma): > 100 µM | TGI (HOP-18 NSCLC): > 100 µM | TGI (SNB-78 CNS): > 100 µM | TGI (RXF-631 renal): > 100 µM

From PubChem BioAssay (NCI)
